One may read the melting point as the temperature, or range, at which the solid turns liquid. Regarding `CCCc1nc2nccc(C)c2[nH]1`, the melting point lay in the range of 110 to 112 °C. To `Cc1ccc2c(n1)sc1c(Cl)nnnc12` belongs 188 to 189 °C; to `O=C(CBr)NC1(F)C=CC=CC1C(=O)c1ccccc1` (stereo not drawn), 120 to 121 °C. To `NC(=S)NC(=O)c1ccccc1` belongs 170 to 171 °C; to `COC(=O)C(C#N)=Cc1cc(-n2c(=O)cc(C(F)(F)F)n(C)c2=O)ccc1Cl`, 187 to 188 °C; to `CCCCCCCCCC(C)NC(=O)C=Cc1cccc([N+](=O)[O-])c1` (stereo not drawn), 81 to 83 °C. `NS(=O)(=O)c1ccc(-n2nc(NC(=O)Nc3cccc(C(F)(F)F)c3)cc2-c2ccccc2)cc1` gave a melting point of 195 to 197 °C. To `CCOC(=O)C1=C(COCCN=[N+]=[N-])NC(C)=C(C(=O)OC)C1c1ccccc1Cl` (stereo not drawn) belongs 145 to 146 °C; to `Brc1cccc2c1Cc1ccccc1-2`, 102 to 103 °C.

In the case of `CCCCc1nc2c(c(=O)[nH]1)CN(C(=O)C(C)(C)C)CC2`, the melting point was in the range of 167 to 172 °C.

Take `CCNC(=S)Nc1ccc2[nH]c3cnc(C(=O)OC(C)C)c(CC)c3c2c1`: the melting point was 234 to 236 °C. Molecule `CN(C)Cc1ccc(/C=C/C(=O)O)cn1` returned a melting point of 144 °C. Molecule `COc1cc(OC)c2c(=O)[nH]c(-c3ccc(CN4CCN(C)CC4)cc3)nc2c1` showed a melting point of 275 to 277 °C.

The molecule `S=C(Nc1ccc(Nc2ccccc2)cc1)Nc1ccc(Nc2ccccc2)cc1` gave a melting point of 164 to 171 °C.

As to `COc1cc(OC)c2c(=O)cc(-c3ccc(O)cc3)oc2c1`, the melting point was 301 to 303 °C. For the molecule `CCOC(=O)NNc1ccc(-c2cccc(C(F)(F)F)c2)nn1`, the melting point lay within 168 to 170 °C. Molecule `COC(=O)c1cc(C=O)cc([N+](=O)[O-])c1` displayed a melting point of 85 °C. With `CS(=O)(=O)Nc1ccc2c(c1)C(=O)CC1(CCN(CCc3ccc(Cl)nc3)CC1)O2`, the melting point lay within 213 to 215 °C. The molecule `CC(C)NC(=O)[C@H](C)C[C@H](O)[C@H](CC1CCCCC1)NC(=O)[C@H](Cc1cscn1)NC(=O)OC(C)(C)C` came in with a melting point of 185 to 187 °C. In turn, `O=C(O)C1CCc2c(c3cccc(Br)c3n2C(=O)c2ccccc2)C1` (stereo not drawn) yielded a melting point of 196 to 198 °C.

As for `CCc1ccc2[nH]c3c(=O)n(CCN(C)C)c4ccccc4c3c2c1`, the melting point was 266 to 268 °C. `Cn1c2c(c3ccccc31)CC(C(=O)O)N(C(=O)c1ccc(Cl)cc1)C2` (stereo not drawn) registered a melting point of 262 to 263 °C. Take `COc1ccc(C(=O)C(NC(=O)CCCCCBr)c2ccc(OC)cc2)cc1` (stereo not drawn): the melting point worked out at 93 °C.

Take `CN(C)c1ccc([N+](=O)[O-])cn1`: the melting point fell in the range of 146 to 149 °C. To `CCOC(=O)c1ccn(-c2ccc(OCC)cc2)n1` belongs 88 to 90 °C; to `O=c1cc(SCc2ccc(O)cc2)oc2cc(O)cc(O)c12`, 222 to 225 °C. To `CC[C@H]1[C@@H](O)[C@H](C)C(=O)N1c1ccc(C#N)c(C(F)(F)F)c1` belongs 113 to 119 °C; to `CC(C)NCC(O)COc1cccnc1[N+](=O)[O-]` (stereo not drawn), 99 to 101 °C; to `COCOc1ccc(Cc2cccc(-c3c(O)c4ccc(Cl)cc4[nH]c3=O)c2)cc1`, 261 to 264 °C. Consider `O=C1NCN(c2ccc(Cl)cc2)C12CCN(Cc1ccnc(-c3ccc(Cl)cc3)c1)CC2`, for which the melting point fell in the range of 223 to 225 °C. To `COC(=O)C1=C(C)NC(C)=C(C(=O)OCCN2CC=C(c3ccccc3)CC2)C1c1cccc([N+](=O)[O-])c1` (stereo not drawn) belongs 115 to 116 °C. As for `O=C1c2ccccc2CN1CCN1CCC(Cc2c[nH]c3ccc(F)cc23)CC1`, the melting point came out at 175 °C. In turn, `CC(=O)OCCNc1ccc(Cl)cc1C(=O)c1ccccc1F` came in with a melting point of 48 to 55 °C. In turn, `C/C=C/C/C=C/CCCCCCCC(=O)Nc1nc(CC(=O)O)cs1` registered a melting point of 101 to 102 °C. On to `c1csc(CNc2nc(-n3ccnc3)nc3ccccc23)c1`, for which the melting point lay in the range of 234 to 235 °C. `Cn1cc(CN2C(=O)C3(COc4cc5c(cc43)OCCO5)c3ccccc32)ccc1=O` (stereo not drawn) came in with a melting point of 205 to 207 °C. In turn, `C(=CCN(CC1CCCCC1)CC1CCCCC1)CN(CC1CCCCC1)CC1CCCCC1` had a melting point of 72 to 73 °C. `CCOC(=O)C1=C(C)NC(C=O)=C(C(=O)OCC)C1c1ccccc1[N+](=O)[O-]` (stereo not drawn): the melting point lay within 101 to 103 °C.

Take `O=C1c2ccccc2CCn2cccc21`: the melting point fell in the range of 54 to 55 °C.

For the molecule `O=C(O)c1cn(-c2ccc(F)cc2)c2cc(N3CCC(N=Cc4ccc([N+](=O)[O-])cc4)C3)c(F)cc2c1=O` (stereo not drawn), the melting point was 247 to 248 °C. On to `COc1cc(COc2nn(-c3ccccc3)cc2/C=C/P(=O)(O)O)ccc1OCc1nc(-c2ccco2)oc1C`, for which the melting point is 138 to 140 °C. To `CC(C)(C)C(O)(Cc1ccccc1)C(Cn1ccnc1)Oc1ccc(Cl)cc1` (stereo not drawn) belongs 179 to 181 °C; to `CC(C)Nc1n[nH]c2nc(Oc3ccc(F)cc3F)ncc12`, 211 to 214 °C; to `CCOC(=S)c1cnc(C)nc1N`, 130 to 131 °C. With `CCc1cn(C(CC)C(=O)N(C)C)nc1-c1ccccc1Cl` (stereo not drawn), the melting point fell in the range of 60 to 63 °C. Consider `O=[N+]([O-])c1ccc(N2CCN(Cc3ccccc3)S2(=O)=O)cc1`, for which the melting point lay in the range of 164 to 165 °C. Turning to `CCOC(=O)CN1C(=O)[C@@H](N)[C@H](c2ccccc2)Sc2ccccc21`, the melting point lay within 176 to 178 °C.

`CC(=O)Nc1ccc(I)cc1C` came in with a melting point of 182 to 183 °C.

For `Cn1nc(-c2ccccc2)c(CNc2ccccc2C(=O)O)c1Cl`, the melting point is 192 to 193 °C. With `Cn1cnc2c1c(=O)n(CC(O)CN1CCN(C(c3ccc(F)cc3)c3ccc(F)cc3)CC1)c(=O)n2C` (stereo not drawn), the melting point lay within 138 to 140 °C. In turn, `CCOC(=O)c1c(N=Cc2ccc([N+](=O)[O-])s2)sc(N=Cc2ccc([N+](=O)[O-])s2)c1C(=O)OCC` had a melting point of 255 to 257 °C. Consider `CCn1c([N+](=O)[O-])cnc1-c1nnc2ccc(N=CN(C)C)nn12`, for which the melting point lay within 198 to 200 °C. In turn, `CCCn1c(=O)c2c(Cl)cc(Cl)cc2n(Cc2ccccc2)c1=O` registered a melting point of 111 to 115 °C. To `Cc1cnc(C2=NC(C)(C(C)C)C(=O)N2)c(C(=O)C(=O)N(C)c2ccccc2)c1` (stereo not drawn) belongs 153 to 156 °C.

Molecule `C#CCNC(=O)c1ccc2ccccc2c1` returned a melting point of 163 to 165 °C.

As for `CCN(CC)CCNC(C(=O)NC(C)(C)C)c1ccccc1` (stereo not drawn), the melting point was in the range of 50 to 52 °C. The molecule `COc1cc2c(Nc3cc(OC)c(Cl)cc3Cl)c(C#N)cnc2cc1F` returned a melting point of 219 to 221 °C. Molecule `COc1ccc(C2=NNC(N)(C3CCN(Cc4ccccc4)CC3)c3cc(OC)ccc32)cc1` (stereo not drawn) registered a melting point of 150 °C. To `CC1CN(C(=O)Nc2ccc(Cl)cc2)N=C1c1ccc(Cl)cc1` (stereo not drawn) belongs 139 to 140 °C; to `c1ncc2ncncc2n1`, 124 to 126 °C; to `Cc1noc(NC(=O)N2CCN(c3nccc(-c4ccc(F)c(F)c4)n3)CC2)c1C`, 214 to 215 °C. For `CCn1cc(C(=O)OC)c(=O)cc1-c1ccc(N(C)C)c(C)c1`, the melting point was in the range of 132 to 134 °C. `O=C(O)CCCN(C(=O)c1ccc(Cl)cc1)c1cccc2ccccc12`: the melting point was in the range of 173 to 174 °C.

The record behind these values is a melting point compilation (Tetko et al.; mined from patent text by program, amines drawn as free bases though some values may be those of a salt).
